This passage reports MIC90 results from ChEMBL document CHEMBL1145463, “Clonal spread of mef-positive macrolide-resistant Streptococcus pneumoniae isolates causing invasive disease in adults in Germany” (2007).

As a reminder, the MIC90 is the lowest concentration that inhibits either 90% of growth or 90% of the strains tested, depending on the study. Lower therefore signals greater potency.

In this assay the test system is Streptococcus pneumoniae. Briefly: Antibacterial activity against telithromycin-susceptible Streptococcus pneumoniae. It counts as functional.

Converted amounts (≈) assume the structure as drawn.

The compound `CC[C@H]1OC(=O)[C@H](C)C(=O)[C@H](C)[C@@H](O[C@@H]2O[C@H](C)C[C@H](N(C)C)[C@H]2O)[C@](C)(OC)C[C@@H](C)C(=O)[C@H](C)[C@H]2N(CCCCn3cnc(-c4cccnc4)c3)C(=O)O[C@]12C` [TELITHROMYCIN] registered an MIC90 of 0.12 µg/mL (≈ 0.148 µM).
